From PubChem BioAssay (NCI)
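Cells were grown in 96-well plates and exposed to each compound for 48 hours at five concentrations; endpoints were interpolated linearly between bracketing concentrations, or set to the highest concentration if not reached. GI50 = concentration required for 50% inhibition of growth. TGI marks complete inhibition of growth.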

Legend:
Test in all cases: NCI tumour cell line growth inhibition, 48 h
[1] = tested on: 786-0 renal
[2] = tested on: A498 renal
[3] = tested on: A549 NSCLC
[4] = tested on: ACHN renal
[5] = tested on: BT-549 breast
[6] = tested on: CAKI-1 renal
[7] = tested on: CCRF-CEM leukemia
[8] = tested on: COLO 205 colon
[9] = tested on: DU-145 prostate
[10] = tested on: EKVX NSCLC
[11] = tested on: HCC-2998 colon
[12] = tested on: HCT-116 colon
[13] = tested on: HCT-15 colon
[14] = tested on: HL-60(TB) leukemia
[15] = tested on: HOP-62 NSCLC
[16] = tested on: HOP-92 NSCLC
[17] = tested on: HS 578T breast
[18] = tested on: HT29 colon
[19] = tested on: IGROV1 ovarian
[20] = tested on: K-562 leukemia
[21] = tested on: KM12 colon
[22] = tested on: LOX IMVI melanoma
[23] = tested on: M14 melanoma
[24] = tested on: MALME-3M melanoma
[25] = tested on: MCF7 breast
[26] = tested on: MDA-MB-231 breast
[27] = tested on: MDA-MB-435
[28] = tested on: MOLT-4 leukemia
[29] = tested on: NCI-H226 lung
[30] = tested on: NCI-H23 lung
[31] = tested on: NCI-H460 lung
[32] = tested on: NCI-H522 lung
[33] = tested on: NCI/ADR-RES ovarian
[34] = tested on: OVCAR-3 ovarian
[35] = tested on: OVCAR-4 ovarian
[36] = tested on: OVCAR-5 ovarian
[37] = tested on: OVCAR-8 ovarian
[38] = tested on: PC-3 prostate
[39] = tested on: RPMI-8226 leukemia
[40] = tested on: RXF 393 renal
[41] = tested on: SF-268 CNS
[42] = tested on: SF-295 CNS
[43] = tested on: SF-539 CNS
[44] = tested on: SK-MEL-2 melanoma
[45] = tested on: SK-MEL-28 melanoma
[46] = tested on: SK-MEL-5 melanoma
[47] = tested on: SK-OV-3 ovarian
[48] = tested on: SN12C renal
[49] = tested on: SNB-75 CNS
[50] = tested on: SR leukemia
[51] = tested on: SW-620 colon
[52] = tested on: T-47D breast
[53] = tested on: U251 CNS
[54] = tested on: UACC-257 melanoma
[55] = tested on: UACC-62 melanoma
[56] = tested on: UO-31 renal

In the case of `COc1cccc2c(=O)c3c(sc12)c(NCCCNCCO)nc1ccccc13`, the GI50 [1] is reported as 1.75 µM, the TGI [1] is reported as 3.25 µM and the GI50 [2] is reported as 1.56 µM. For the same compound, the TGI [2] was 3.3 µM, the GI50 [3] was 1.42 µM and the TGI [3] was 3.11 µM. The GI50 [4] was 1.35 µM, the TGI [4] was 2.67 µM and the GI50 [5] was 5.29 µM. The TGI [5] was 18.6 µM, the GI50 [6] was 1.18 µM and the TGI [6] was 2.5 µM. It also gave a GI50 [7] of 1.53 µM, a TGI [7] of 3.18 µM and a GI50 [8] of 1.45 µM. The TGI [8] was 3.09 µM, the GI50 [9] was 1.65 µM and the TGI [9] was 3.11 µM. It also gave a GI50 [10] of 1.52 µM, a TGI [10] of 3.05 µM and a GI50 [11] of 1.59 µM. For the same compound, the TGI [11] was 3.21 µM, the GI50 [12] was 1.41 µM and the TGI [12] was 2.74 µM. For the same compound, the GI50 [13] was 1.51 µM, the TGI [13] was 3.02 µM and the GI50 [14] was 1.73 µM. It also gave a TGI [14] of 3.5 µM, a GI50 [15] of 1.2 µM and a TGI [15] of 2.81 µM. The GI50 [16] was 1.32 µM, the TGI [16] was 13.1 µM and the GI50 [17] was 1.65 µM. It also gave a TGI [17] of 4.07 µM, a GI50 [18] of 1.54 µM and a TGI [18] of 3.75 µM. The GI50 [19] was 1.16 µM, the TGI [19] was 2.58 µM and the GI50 [20] was 1.42 µM. It also gave a TGI [20] of 3.68 µM, a GI50 [21] of 1.72 µM and a TGI [21] of 3.23 µM. It also gave a GI50 [22] of 1.48 µM, a TGI [22] of 2.96 µM and a GI50 [23] of 1.7 µM. For the same compound, the TGI [23] was 3.22 µM, the GI50 [24] was 1.64 µM and the TGI [24] was 3.15 µM. The GI50 [25] was 1.46 µM, the TGI [25] was 3 µM and the GI50 [26] was 1.35 µM. For the same compound, the TGI [26] was 2.86 µM, the GI50 [27] was 1.72 µM and the TGI [27] was 3.2 µM. The GI50 [28] was 1.58 µM, the TGI [28] was 3.31 µM and the GI50 [29] was 1.6 µM. The TGI [29] was 3.46 µM, the GI50 [30] was 1.64 µM and the TGI [30] was 3.27 µM. The GI50 [31] was 1.54 µM, the TGI [31] was 3.15 µM and the GI50 [32] was 1.58 µM. It also gave a TGI [32] of 3.45 µM, a GI50 [33] of 1.81 µM and a TGI [33] of 3.94 µM. It also gave a GI50 [34] of 1.64 µM, a TGI [34] of 3.16 µM and a GI50 [35] of 1.63 µM. The TGI [35] was 3.38 µM, the GI50 [36] was 1.58 µM and the TGI [36] was 3.16 µM. The GI50 [37] was 1.78 µM, the TGI [37] was 3.97 µM and the GI50 [38] was 1.23 µM. For the same compound, the TGI [38] was 2.7 µM, the GI50 [39] was 1.73 µM and the TGI [39] was 3.71 µM. For the same compound, the GI50 [40] was 1.46 µM, the TGI [40] was 2.84 µM and the GI50 [41] was 1.59 µM. The TGI [41] was 3.33 µM, the GI50 [42] was 1.71 µM and the TGI [42] was 3.24 µM. It also gave a GI50 [43] of 1.68 µM, a TGI [43] of 3.1 µM and a GI50 [44] of 1.83 µM. For the same compound, the TGI [44] was 3.74 µM, the GI50 [45] was 1.9 µM and the TGI [45] was 3.46 µM. For the same compound, the GI50 [46] was 1.69 µM, the TGI [46] was 3.11 µM and the GI50 [47] was 3.39 µM. The TGI [47] was 19.4 µM, the GI50 [48] was 1.51 µM and the TGI [48] was 3.06 µM. The GI50 [49] was 0.964 µM, the TGI [49] was 7.44 µM and the GI50 [50] was 1.45 µM. The TGI [50] was 3.83 µM, the GI50 [51] was 1.38 µM and the TGI [51] was 2.9 µM. The GI50 [52] was 1.48 µM, the TGI [52] was 3.48 µM and the GI50 [53] was 1.53 µM. It also gave a TGI [53] of 3.02 µM, a GI50 [54] of 1.94 µM and a TGI [54] of 3.79 µM. The GI50 [55] was 1.6 µM, the TGI [55] was 3.03 µM and the GI50 [56] was 1.03 µM. For the same compound, the TGI [56] was 2.28 µM.
